The source of these data is patent publication US9051456B2, “Agent for drug clearance and accelerator for drug clearance” (SEIKAGAKU CORPORATION, priority 2005, dated 2015).

The nature of the test: Elimination of FP from inside of the oral cavity by gargling/rinsing (Tests 1 to 6), FP in spat-out liquids measured by HPLC. In kind it is in vivo, human (healthy adult volunteers). The following applies: conclusion from Tests 1 to 6. The method, then:
Healthy 5 adult volunteers were selected. In this connection, these volunteers received sufficient explanation from a doctor based on a descriptive document, and after understanding the explanation, submitted a document on their own judgment stating that they approved the participation in the test.
In this connection, application of FP was carried out by directly applying the FP (dry powder) took out on powder papers. Also, the subjects were given attention not to inhale the FP applied into the oral cavity from the bronchus to the lungs.
Test 1: After rinsing inside of the oral cavity, inside of the oral cavity was dried by blowing air for 30 seconds with a dryer, and then FP (100 μg) was sparged to the oral cavity. Thereafter, rinsing of the mouth with looking upward (gargling) was carried out for 5 seconds and then rinsing of the mouth facing front (rinsing) was carried out for 5 seconds (these are regarded as once), respectively using 20 ml of purified water, which was repeated 5 times. […]
In each test, the liquids spat out after gargling and rinsing by each subject were recovered, and FP concentrations in said liquids were respectively measured. […]
Based on the measured FP concentrations, amounts of FP eliminated from inside of the oral cavity were calculated, and mean value and standard deviation (SD) in each test were calculated. […]

For hyaluronic acid [HA], the “overall effect on elimination of drugs and acceleration of elimination” value was “markedly effective”.
